System: Detoxification protein genes
Assay: DNA chip mRNA expression in yeast, detoxification protein genes (Table 8)
Assay type: cell-based, Saccharomyces cerevisiae S288C
Outline: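 Ratios compare mRNA levels in stressed and control S. cerevisiae. Each toxicant was applied for two hours to log-phase cultures at 25° C. at a sub-lethal, growth-inhibiting level; fluorescent cDNA (Cy3- or Cy5-dUTP) was hybridized to a genome-wide yeast chip for over 12 h at 65° C.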

**Q.** Which “The level of expressed mRNA in the presence of chemical substance/The level of expressed mRNA in the absence of chemical substance” value (yeast gene YBL064C) does the source give for `O=[N+]([O-])c1cc[n+]([O-])c2ccccc12` [(5), 4-nitroquinolin-N-oxide] here?
**A.** 0.8

**Q.** What about the “The level of expressed mRNA in the presence of chemical substance/The level of expressed mRNA in the absence of chemical substance” value (yeast gene YBR008C) of the same compound?
**A.** 0.9

**Q.** What about the “The level of expressed mRNA in the presence of chemical substance/The level of expressed mRNA in the absence of chemical substance” value (yeast gene YBR145W) of the same compound?
**A.** 1.1

**Q.** And the “The level of expressed mRNA in the presence of chemical substance/The level of expressed mRNA in the absence of chemical substance” value (yeast gene YBR244W)?
**A.** 1.7

**Q.** What about the “The level of expressed mRNA in the presence of chemical substance/The level of expressed mRNA in the absence of chemical substance” value (yeast gene YBR293W) of the same compound?
**A.** 0.8

**Q.** What about the “The level of expressed mRNA in the presence of chemical substance/The level of expressed mRNA in the absence of chemical substance” value (yeast gene YCL035C) of the same compound?
**A.** 1.5

**Q.** And the “The level of expressed mRNA in the presence of chemical substance/The level of expressed mRNA in the absence of chemical substance” value (yeast gene YCL069W)?
**A.** 0.9

**Q.** And the “The level of expressed mRNA in the presence of chemical substance/The level of expressed mRNA in the absence of chemical substance” value (yeast gene YCR083W)?
**A.** 1.6

**Q.** And the “The level of expressed mRNA in the presence of chemical substance/The level of expressed mRNA in the absence of chemical substance” value (yeast gene YDL100C)?
**A.** 1.0

**Q.** What about the “The level of expressed mRNA in the presence of chemical substance/The level of expressed mRNA in the absence of chemical substance” value (yeast gene YDL168W) of the same compound?
**A.** 1.2

**Q.** And the “The level of expressed mRNA in the presence of chemical substance/The level of expressed mRNA in the absence of chemical substance” value (yeast gene YDR256C)?
**A.** 1.2

**Q.** And the “The level of expressed mRNA in the presence of chemical substance/The level of expressed mRNA in the absence of chemical substance” value (yeast gene YDR453C)?
**A.** 0.7

**Q.** What about the “The level of expressed mRNA in the presence of chemical substance/The level of expressed mRNA in the absence of chemical substance” value (yeast gene YDR513W) of the same compound?
**A.** 0.9

**Q.** And the “The level of expressed mRNA in the presence of chemical substance/The level of expressed mRNA in the absence of chemical substance” value (yeast gene YDR538W)?
**A.** 1.0

**Q.** And the “The level of expressed mRNA in the presence of chemical substance/The level of expressed mRNA in the absence of chemical substance” value (yeast gene YEL027W)?
**A.** 1.0

**Q.** What about the “The level of expressed mRNA in the presence of chemical substance/The level of expressed mRNA in the absence of chemical substance” value (yeast gene YEL065W) of the same compound?
**A.** 1.4

**Q.** And the “The level of expressed mRNA in the presence of chemical substance/The level of expressed mRNA in the absence of chemical substance” value (yeast gene YER185W)?
**A.** 1.6

**Q.** And the “The level of expressed mRNA in the presence of chemical substance/The level of expressed mRNA in the absence of chemical substance” value (yeast gene YFL050C)?
**A.** 1.0

**Q.** And the “The level of expressed mRNA in the presence of chemical substance/The level of expressed mRNA in the absence of chemical substance” value (yeast gene YGL013C)?
**A.** 1.1

**Q.** And the “The level of expressed mRNA in the presence of chemical substance/The level of expressed mRNA in the absence of chemical substance” value (yeast gene YGL254W)?
**A.** 1.1

**Q.** And the “The level of expressed mRNA in the presence of chemical substance/The level of expressed mRNA in the absence of chemical substance” value (yeast gene YGR088W)?
**A.** 1.0

**Q.** And the “The level of expressed mRNA in the presence of chemical substance/The level of expressed mRNA in the absence of chemical substance” value (yeast gene YGR138C)?
**A.** 0.8

**Q.** And the “The level of expressed mRNA in the presence of chemical substance/The level of expressed mRNA in the absence of chemical substance” value (yeast gene YGR197C)?
**A.** 0.7

**Q.** What about the “The level of expressed mRNA in the presence of chemical substance/The level of expressed mRNA in the absence of chemical substance” value (yeast gene YGR209C) of the same compound?
**A.** 1.9

**Q.** And the “The level of expressed mRNA in the presence of chemical substance/The level of expressed mRNA in the absence of chemical substance” value (yeast gene YGR224W)?
**A.** 1.4

**Q.** What about the “The level of expressed mRNA in the presence of chemical substance/The level of expressed mRNA in the absence of chemical substance” value (yeast gene YHL040C) of the same compound?
**A.** 1.1

**Q.** What about the “The level of expressed mRNA in the presence of chemical substance/The level of expressed mRNA in the absence of chemical substance” value (yeast gene YHL047C) of the same compound?
**A.** 1.2

**Q.** What about the “The level of expressed mRNA in the presence of chemical substance/The level of expressed mRNA in the absence of chemical substance” value (yeast gene YHR008C) of the same compound?
**A.** 0.6

**Q.** What about the “The level of expressed mRNA in the presence of chemical substance/The level of expressed mRNA in the absence of chemical substance” value (yeast gene YHR048W) of the same compound?
**A.** 1.0

**Q.** What about the “The level of expressed mRNA in the presence of chemical substance/The level of expressed mRNA in the absence of chemical substance” value (yeast gene YHR053C) of the same compound?
**A.** 2.9

**Q.** And the “The level of expressed mRNA in the presence of chemical substance/The level of expressed mRNA in the absence of chemical substance” value (yeast gene YHR055C)?
**A.** 2.7

**Q.** What about the “The level of expressed mRNA in the presence of chemical substance/The level of expressed mRNA in the absence of chemical substance” value (yeast gene YIR002C) of the same compound?
**A.** 1.2

**Q.** What about the “The level of expressed mRNA in the presence of chemical substance/The level of expressed mRNA in the absence of chemical substance” value (yeast gene YIR038C) of the same compound?
**A.** 0.7

**Q.** What about the “The level of expressed mRNA in the presence of chemical substance/The level of expressed mRNA in the absence of chemical substance” value (yeast gene YJL101C) of the same compound?
**A.** 1.4

**Q.** What about the “The level of expressed mRNA in the presence of chemical substance/The level of expressed mRNA in the absence of chemical substance” value (yeast gene YJR104C) of the same compound?
**A.** 1.5

**Q.** What about the “The level of expressed mRNA in the presence of chemical substance/The level of expressed mRNA in the absence of chemical substance” value (yeast gene YKL026C) of the same compound?
**A.** 1.0

**Q.** And the “The level of expressed mRNA in the presence of chemical substance/The level of expressed mRNA in the absence of chemical substance” value (yeast gene YKL064W)?
**A.** 1.2

**Q.** What about the “The level of expressed mRNA in the presence of chemical substance/The level of expressed mRNA in the absence of chemical substance” value (yeast gene YKR066C) of the same compound?
**A.** 1.0

**Q.** What about the “The level of expressed mRNA in the presence of chemical substance/The level of expressed mRNA in the absence of chemical substance” value (yeast gene YKR105C) of the same compound?
**A.** 1.0

**Q.** What about the “The level of expressed mRNA in the presence of chemical substance/The level of expressed mRNA in the absence of chemical substance” value (yeast gene YKR106W) of the same compound?
**A.** 1.2

**Q.** What about the “The level of expressed mRNA in the presence of chemical substance/The level of expressed mRNA in the absence of chemical substance” value (yeast gene YLL028W) of the same compound?
**A.** 0.9

**Q.** And the “The level of expressed mRNA in the presence of chemical substance/The level of expressed mRNA in the absence of chemical substance” value (yeast gene YLL057C)?
**A.** 1.1

**Q.** What about the “The level of expressed mRNA in the presence of chemical substance/The level of expressed mRNA in the absence of chemical substance” value (yeast gene YLL060C) of the same compound?
**A.** 0.9

**Q.** What about the “The level of expressed mRNA in the presence of chemical substance/The level of expressed mRNA in the absence of chemical substance” value (yeast gene YLR043C) of the same compound?
**A.** 2.0

**Q.** What about the “The level of expressed mRNA in the presence of chemical substance/The level of expressed mRNA in the absence of chemical substance” value (yeast gene YLR046C) of the same compound?
**A.** 1.0

**Q.** And the “The level of expressed mRNA in the presence of chemical substance/The level of expressed mRNA in the absence of chemical substance” value (yeast gene YML028W)?
**A.** 1.6

**Q.** And the “The level of expressed mRNA in the presence of chemical substance/The level of expressed mRNA in the absence of chemical substance” value (yeast gene YML116W)?
**A.** 1.2

**Q.** And the “The level of expressed mRNA in the presence of chemical substance/The level of expressed mRNA in the absence of chemical substance” value (yeast gene YMR015C)?
**A.** 1.7

**Q.** What about the “The level of expressed mRNA in the presence of chemical substance/The level of expressed mRNA in the absence of chemical substance” value (yeast gene YMR038C) of the same compound?
**A.** 1.5

**Q.** What about the “The level of expressed mRNA in the presence of chemical substance/The level of expressed mRNA in the absence of chemical substance” value (yeast gene YNL239W) of the same compound?
**A.** 1.2

**Q.** What about the “The level of expressed mRNA in the presence of chemical substance/The level of expressed mRNA in the absence of chemical substance” value (yeast gene YNL241C) of the same compound?
**A.** 0.8

**Q.** What about the “The level of expressed mRNA in the presence of chemical substance/The level of expressed mRNA in the absence of chemical substance” value (yeast gene YNL259C) of the same compound?
**A.** 1.1

**Q.** And the “The level of expressed mRNA in the presence of chemical substance/The level of expressed mRNA in the absence of chemical substance” value (yeast gene YOL158C)?
**A.** 1.2

**Q.** What about the “The level of expressed mRNA in the presence of chemical substance/The level of expressed mRNA in the absence of chemical substance” value (yeast gene YOR031W) of the same compound?
**A.** 1.4

**Q.** And the “The level of expressed mRNA in the presence of chemical substance/The level of expressed mRNA in the absence of chemical substance” value (yeast gene YOR153W)?
**A.** 1.0

**Q.** And the “The level of expressed mRNA in the presence of chemical substance/The level of expressed mRNA in the absence of chemical substance” value (yeast gene YOR247W)?
**A.** 0.6

**Q.** What about the “The level of expressed mRNA in the presence of chemical substance/The level of expressed mRNA in the absence of chemical substance” value (yeast gene YOR251C) of the same compound?
**A.** 0.8

**Q.** And the “The level of expressed mRNA in the presence of chemical substance/The level of expressed mRNA in the absence of chemical substance” value (yeast gene YOR273C)?
**A.** 1.1

**Q.** And the “The level of expressed mRNA in the presence of chemical substance/The level of expressed mRNA in the absence of chemical substance” value (yeast gene YPL163C)?
**A.** 0.6

**Q.** What about the “The level of expressed mRNA in the presence of chemical substance/The level of expressed mRNA in the absence of chemical substance” value (yeast gene YPR200C) of the same compound?
**A.** 1.6

Reference: patent US8192962B2, “Processes for detecting toxic substances” (Daikin Industries, Ltd., priority 2001, dated 2012)
